Measured values: patent US20260125382A1, “COMPOUNDS FOR INHIBITING OR DEGRADING CDK2 AND/OR CDK9 AND MEDICINAL USE THEREOF” (KOREA RESEARCH INSTITUTE OF CHEMICAL TECHNOLOGY, priority 2022, published 2026)
Values belong to the compound of their own block, whether it stands above or below them.

Columns and labels:
CDK2 = molecular target: T1, CDK2 (Homo sapiens, UniProt P24941); experiment: CDK protein degradation activity (Western blotting), CDK2; type: cell-based; conditions: MDA-MB-231 cells, 16 hours, Western blot
T1 construct: endogenous in cells; host or cells: MDA-MB-231
Summary of the method: (§1)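 Seed MDA-MB-231 cells; next day add compound to 100 nM, 1 μM or 10 μM final, or DMSO. After 16 h, harvest and lyse in Triton X-100 buffer, run SDS-PAGE, probe for CDK2, CDK9 and tubulin.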

CDK9 = molecular target: T2, CDK9 (Homo sapiens, UniProt P50750); experiment: CDK protein degradation activity (Western blotting), CDK9; type: cell-based; conditions: MDA-MB-231 cells, 16 hours, Western blot
T2 construct: endogenous in cells; host or cells: MDA-MB-231
Summary of the method: as §1

CDK2/cyclin A = molecular target: T3, CDK2/cyclin A (Homo sapiens, UniProt P24941); experiment: CDK protein inhibition, KINOMEscan (Eurofins), CDK2/cyclin A; type: binding; conditions: for IC50: Table 17, unit inferred
T3 construct: purchased Eurofins Scientific

T2 sequence (P50750 whole entry): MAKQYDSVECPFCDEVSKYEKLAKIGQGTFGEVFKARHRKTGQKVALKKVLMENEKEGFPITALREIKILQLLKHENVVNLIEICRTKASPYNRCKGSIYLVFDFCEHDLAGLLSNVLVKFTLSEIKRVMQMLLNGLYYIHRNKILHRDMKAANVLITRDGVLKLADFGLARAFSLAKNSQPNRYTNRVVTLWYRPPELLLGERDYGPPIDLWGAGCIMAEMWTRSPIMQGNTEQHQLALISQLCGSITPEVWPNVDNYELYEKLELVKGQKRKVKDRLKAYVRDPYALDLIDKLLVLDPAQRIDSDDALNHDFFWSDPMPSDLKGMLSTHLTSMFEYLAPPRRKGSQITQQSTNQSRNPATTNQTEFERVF

Enzyme degradation CDK2 (% remaining) @ 0.1 μM (CDK2): 30%
Enzyme degradation CDK2 (% remaining) @ 1 μM (CDK2): 40%
Enzyme degradation CDK2 (% remaining) @ 10 μM (CDK2): 50%
Enzyme degradation CDK9 (% remaining) @ 0.1 μM (CDK9): 0/0/0%
Enzyme degradation CDK9 (% remaining) @ 1 μM (CDK9): 0/0/0%
Enzyme degradation CDK9 (% remaining) @ 10 μM (CDK9): 0/0/0%
IC50 (CDK2/cyclin A): > 10 µM
Structure (SMILES): Cc1cccc(C(=O)N[C@H]2C[C@H](n3cnc4c(NCC5CCN(CC6CCN(C(=O)CNc7ccc8c(c7)C(=O)N(C7CCC(=O)NC7=O)C8=O)CC6)CC5)ncnc43)C2)n1 (some centres unmarked) [Compound 74, N-((1r,3r)-3-(6-(((1-((1-((2-(2,6-dioxopiperidin-3-yl)-1,3-dioxoisoindolin-5-yl)glycyl)piperidin-4-yl)methyl)piperidin-4-yl)methyl)amino)-9H-purin-9-yl)cyclobutyl)-6-methylpicolinamide]

Enzyme degradation CDK2 (% remaining) @ 0.1 μM (CDK2): 0/0/0%
Enzyme degradation CDK2 (% remaining) @ 1 μM (CDK2): 0/0/0%
Enzyme degradation CDK2 (% remaining) @ 10 μM (CDK2): 0/0/0%
Enzyme degradation CDK9 (% remaining) @ 0.1 μM (CDK9): 0/0/0%
Enzyme degradation CDK9 (% remaining) @ 1 μM (CDK9): 0/0/0%
Enzyme degradation CDK9 (% remaining) @ 10 μM (CDK9): 0/0/0%
IC50 (CDK2/cyclin A): 0.613 µM
Structure (SMILES): Cc1cccc(C(=O)N[C@H]2C[C@@H](n3cnc4c(Nc5ccc(N6CCN(CC7CCN(C(=O)COc8cccc9c8C(=O)N(C8CCC(=O)NC8=O)C9=O)CC7)CC6)cc5)ncnc43)C2)n1 (some centres unmarked) [Compound 91, N-((1s,3s)-3-(6-((4-(4-((1-(2-((2-(2,6-dioxopiperidin-3-yl)-1,3-dioxoisoindolin-4-yl)oxy)acetyl)piperidin-4-yl)methyl)piperazin-1-yl)phenyl)amino)-9H-purin-9-yl)cyclobutyl)-6-methylpicolinamide]

Further lines, the compound ahead of its results:

Structure (SMILES): Cc1cccc(C(=O)N[C@H]2C[C@H](n3cnc4c(NCC5CCN(C(=O)CCCCCNc6ccc7c(c6)C(=O)N([C@@H]6CCC(=O)NC6=O)C7=O)CC5)ncnc43)C2)n1 [Compound 65, N-((1r,3r)-3-(6-(((1-(6-((2-(2,6-dioxopiperidin-3-yl)-1,3-dioxoisoindolin-5-yl)amino)hexanoyl)piperidin-4-yl)methyl)amino)-9H-purin-9-yl)cyclobutyl)-6-methylpicolinamide]
Enzyme degradation CDK2 (% remaining) @ 0.1 μM (CDK2): 100%
Enzyme degradation CDK2 (% remaining) @ 1 μM (CDK2): 50%
Enzyme degradation CDK2 (% remaining) @ 10 μM (CDK2): 20%
Enzyme degradation CDK9 (% remaining) @ 0.1 μM (CDK9): 30%
Enzyme degradation CDK9 (% remaining) @ 1 μM (CDK9): 10%
Enzyme degradation CDK9 (% remaining) @ 10 μM (CDK9): 0%
CDK2/cyclin A inhibition (%) (at concentration of 1 μM) (CDK2/cyclin A; 1 μM): 87%

Structure (SMILES): Cc1cccc(C(=O)N[C@H]2C[C@@H](n3cnc4c(NCCC5CCN(CC6CCN(C(=O)CNc7ccc8c(c7)C(=O)N(C7CCC(=O)NC7=O)C8=O)CC6)CC5)ncnc43)C2)n1 (some centres unmarked) [Compound 125, N-((1s,3s)-3-(6-((2-(1-((1-((2-(2,6-dioxopiperidin-3-yl)-1,3-dioxoisoindolin-5-yl)glycyl)piperidin-4-yl)methyl)piperidin-4-yl)ethyl)amino)-9H-purin-9-yl)cyclobutyl)-6-methylpicolinamide]
Enzyme degradation CDK2 (% remaining) @ 0.1 μM (CDK2): 30%
Enzyme degradation CDK2 (% remaining) @ 1 μM (CDK2): 10%
Enzyme degradation CDK2 (% remaining) @ 10 μM (CDK2): 20%
Enzyme degradation CDK9 (% remaining) @ 0.1 μM (CDK9): 0/0/0%
Enzyme degradation CDK9 (% remaining) @ 1 μM (CDK9): 0/0/0%
Enzyme degradation CDK9 (% remaining) @ 10 μM (CDK9): 0/0/0%
IC50 (CDK2/cyclin A): 1.29 µM

Structure (SMILES): O=C1CCC(N2C(=O)c3cccc(NCC(=O)N4CCC(CN5CCN(c6ccc(Nc7ncnc8c7ncn8[C@H]7C[C@@H](NC(=O)Cc8ccccc8)C7)cc6)CC5)CC4)c3C2=O)C(=O)N1 (some centres unmarked) [Compound 176, N-((1s,3s)-3-(6-((4-(4-((1-((2-(2,6-dioxopiperidin-3-yl)-1,3-dioxoisoindolin-4-yl)glycyl)piperidin-4-yl)methyl)piperazin-1-yl)phenyl)amino)-9H-purin-9-yl)cyclobutyl)-2-phenylacetamide]
Enzyme degradation CDK2 (% remaining) @ 0.1 μM (CDK2): 0/0/0%
Enzyme degradation CDK2 (% remaining) @ 1 μM (CDK2): 0/0/0%
Enzyme degradation CDK2 (% remaining) @ 10 μM (CDK2): 0/0/0%
Enzyme degradation CDK9 (% remaining) @ 0.1 μM (CDK9): 0/0/0%
Enzyme degradation CDK9 (% remaining) @ 1 μM (CDK9): 0/0/0%
Enzyme degradation CDK9 (% remaining) @ 10 μM (CDK9): 0/0/0%
IC50 (CDK2/cyclin A): 0.439 µM
